Experimental data published in US4863932A, “Squalene oxide cyclase inhibitors and therapeutic use thereof” (Somatogenetics International, Inc., priority 1988, dated 1989).
Converted amounts (≈) assume the structure as drawn. One block for each compound: values may come before it.

Legend:
SOC = settings: Duriatti et al. 1985; cited from earlier work
[1] = tested on: cyclases of higher plants; settings: Duriatti et al. 1985; cited from earlier work
lymphocytes = settings: in vivo; cited from earlier work
[2] = tested on: LDL receptor of HepG2 cells; assay: Effect on the LDL receptor of HepG2 cells (125I-LDL binding, internalization, degradation); assay type: cell-based; settings: for LDL BINDING: ± SEM; for 125I-LDL Binding / 125I-LDL Internal / 125I-LDL Degradation: HepG2 cells; for 125I-LDL Binding: untreated 57 ± 3; for 125I-LDL Internal: untreated 374 ± 9; for 125I-LDL Degradation: untreated 701 ± 38
Description: We have compared LA-I-140 and LN-I-83 with the conventional squalene oxide cyclase inhibitors U18666A and TMD by studying their effect on the LDL receptor of HepG2 cells.
The assay is essentially as described by Goldstein, Basu and Brown (Methods in Enzymology, 98: 241-260, 1983). Briefly, confluent cultures of HepG2 cells are incubated for 24 hours in cholesterol-free medium to induce LDL receptors. Test compounds are added to the medium at appropriate concenrations during this incubation. At the end of 24 hours [^125 I]labeled LDL (200-400 cpm/ng) is added to the medium (10-50 ug LDL protein/ml) and the cells are incubated at 37° C. for 3-6 hours.
(a) Degradation of ^125 I-LDL: The culture medium is removed from the monolayer of cells and undegraded LDL is precipitated with 10% (w/v) trichloroacetic acid.
The supernatant fraction is treated with 5% (w/v) silver nitrate to precipitate any free iodine. The radioactivity in the final supernatant fraction, which represents monoiodotyrosine, the proteolytic degradation product of ^125 I-LDL, is measured in a gamma counter.
(b) Specific binding of ^125 I-LDL: The cell monolayers are washed in a cold room (4° C.) three times rapidly with ice-cold buffer B (150 mM NaCl, 50 mM TrisHCl, pH 7.4 and 2 mg/ml bovine serum albumin). Each monolayer is incubated in buffer B for 10 minutes followed by one wash with buffer C (buffer B with bovine serum albumin omitted). Receptor-boundLDL is then released form cell surface by adding buffer D (50 mM NaCl, 10 mM HEPES, pH 7.4, 4 mg/ml dextran sulfate) and incubating at 4° C for 60 minutes on a rotary shaker (60 rotations per minute). An aliquot of buffer D is counted to determine the amount of ^125 I-LDL released from cell surface.
Internalization of ^125 I-LDL: After removal of buffer D, the cell monolayers are dissolved in 0.1 N NaOH by incubation overnight at 37° C. in a humidified incubator. The alkaline digest is briefly homogenized with the aid of a sonicator and aliquots are withdrawn for the determination of internalized radioactivity and for measurement of cell protein. All values are normalized for 1 mg of cell protein. The results are shown n Table 1 below:
In the case of PCR-II-23 and PCR-II-8B, we have examined their binding to the LDL receptors both when administered alone and in the presence of "down" regulators of this receptor (Table 2).

squalene oxide cyclase [3] = target: T1, squalene oxide cyclase (Rattus norvegicus, UniProt P48450); assay: biochemical; assay type: biochemical; set-up: Using a rat liver microsomal squalene oxide cyclase assay; from tissue; host or cells: rat liver microsomes / homogenate; settings: for IC50: 40 uM [3H]-oxidosqualene, pH 7.5, anaerobic, 1 hour, 37° C, read-out: I50 (dosage needed to suppress half the SOC activity); for effectiveness as SOC inhibitor relative to TMD: ratio of I50 values, TMD as reference
T1 sequence (P48450 1-733): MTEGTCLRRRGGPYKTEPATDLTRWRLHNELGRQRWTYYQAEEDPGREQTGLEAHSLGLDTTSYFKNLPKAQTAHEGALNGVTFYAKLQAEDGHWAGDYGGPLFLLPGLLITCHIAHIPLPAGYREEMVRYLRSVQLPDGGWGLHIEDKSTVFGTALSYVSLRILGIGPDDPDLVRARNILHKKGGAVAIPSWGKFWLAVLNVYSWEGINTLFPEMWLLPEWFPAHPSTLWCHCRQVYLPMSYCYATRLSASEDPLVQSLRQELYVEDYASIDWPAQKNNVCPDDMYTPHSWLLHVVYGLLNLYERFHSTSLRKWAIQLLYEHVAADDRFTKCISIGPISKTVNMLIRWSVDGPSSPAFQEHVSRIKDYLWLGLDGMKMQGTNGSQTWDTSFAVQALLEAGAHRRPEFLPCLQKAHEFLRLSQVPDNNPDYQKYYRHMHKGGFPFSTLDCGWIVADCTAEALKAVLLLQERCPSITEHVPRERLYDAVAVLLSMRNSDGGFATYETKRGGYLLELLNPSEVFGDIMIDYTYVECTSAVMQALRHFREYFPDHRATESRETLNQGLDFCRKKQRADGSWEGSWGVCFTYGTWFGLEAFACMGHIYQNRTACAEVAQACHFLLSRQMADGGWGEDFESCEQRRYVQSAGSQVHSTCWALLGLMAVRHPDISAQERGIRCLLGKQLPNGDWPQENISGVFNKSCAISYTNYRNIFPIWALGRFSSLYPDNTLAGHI
Description: Using a rat liver microsomal squalene oxide cyclase assay, we have determined the dose at which these drugs and TMD reduce squalene oxide cyclase activity to one-half its normal value. Rat liver microsomes ([…] -rat liver homogenate) were prepared by the method of Popjak, G (Methods in Enzymology, 1969 XV, 393-545). The reaction mixture contained [^3 H]-(S)-[…] (40 uM final), Tween-80 (0.15% w/v final), 0.1 M potassium phosphate, pH 7.5, and inhibitor of varying concentration all in 0.8 ml. The reaction was initiated by the addition of 0.2 ml of the SIO homogenate. The reaction was flushed with N2 and incubated anaerobically for 1 hour at 37° C. The reaction was terminated by addition of 1 ml of 6% potassium hydroxide in methanol (w/v). […] After reduction to […], cold lanosterol was added as carrier, and the extract was applied to a silica TLC plate. After development in methylene chloride, the spot corresponding to lanosterol was scraped off and counted for radioactivity. The I50 for each inhibitor was determined from a plot of radioactive lanosterol formed versus inhibitor concentration.

[4] = incubation with rat liver homogenate; Nelson et al. 1978; cited from earlier work
[5] = tested on: cholesterol biosynthesis in CHO cells; settings: Nelson et al. 1978; cited from earlier work
[6] = tested on: cholesterol biosynthesis in rat liver enzyme preparations; settings: Nelson et al. 1978; cited from earlier work
squalene oxide cyclase [7] = assay: SOC inhibition in in vivo experiments
squalene oxide cyclase [8] = target: T1, squalene oxide cyclase
fatty acid synthesis = assay: Inhibition of fatty acid synthesis; settings: compared with its inhibition of cholesterol synthesis
cholesterol synthesis = assay: Inhibition of cholesterol synthesis
[9] = tested on: sterol synthesis in primary rat hepatocytes; assay: Inhibition of sterol synthesis in primary rat hepatocytes ([3H]-acetate pulse, digitonide precipitation); assay type: cell-based
Description: Primary rat hepatocytes (2.2×10^6 cells/60 mm plate) were incubated overnight with various concentrations of inhibitor. The cells are then pulsed for 1 hour with tritiated acetate, harvested by centrifugation and the lipids extracted (Bligh, E. G. and Dyer, W. J. Can. J. Biochem. Physiol. 1959, 37. 911-917). Polar lipid are separated from neutral lipids by silicic acid chromatography. The polar lipids are collected and counted for radioactive acetate incorporation, and used as control for total acetate metabolism. The neutral lipid fraction is saponified and sterols precipitated with digitonide. The digitonide precipitate is counted to measure total incorporation of radioactive acetate into sterols.
lnhibition of sterol synthesis by PCR II-23 was determined as set forth in Example 1.

[10] = inhibitor with suppressor 25-hydroxy-cholesterol (5 ug/ml), HDF 34 ± 3
[11] = inhibitor with suppressor LDL (200 ug/ml), HDF 27 ± 2
[12] = inhibitor with suppressor Mevalonate, HDF 19 ± 2
[13] = suppressor: none, HDF control 88 ± 6

Structure (SMILES): C[C@@H]1[C@@H](O)CC[C@]2(C)CCCC[C@@H]12 (relative stereo) [4,10 beta-dimethyl analogue]
type of inhibition of SOC (SOC): nonoompetitive inhibitors of SOC | effect on the cyclases of higher plants [1]: virtually no effect

Structure (SMILES): CC[C@H](C)C(=O)O[C@H]1C[C@@H](C)C=C2C=C[C@H](C)[C@H](CC[C@@H]3C[C@@H](O)CC(=O)O3)[C@H]21 [Mevinolin]
defects in glycosylation of proteins in lymphocytes (lymphocytes): defects in the glycosylation of proteins in lymphocytes which can persist for ten months after administration | up regulation of LDL receptors in HepG2 cells ([2]; culture medium free of sterol supplements (HDF)): equally effective in up regulation of LDL receptors | LDL BINDING [2, 10]: 3 ± 2 ng/mg cell protein | LDL BINDING [2, 11]: 38 ± 3 ng/mg cell protein | LDL BINDING [2, 12]: 35 ± 2 ng/mg cell protein | LDL BINDING [2, 13]: 213 ± 4 ng/mg cell protein

IC50 (squalene oxide cyclase [3]): 160 µM | effectiveness as SOC inhibitor relative to TMD (squalene oxide cyclase [3]): about 2.7 times
Structure (SMILES): CC1(C)CC[C@@]2(C)CC[C@H](O)C(C)(C)[C@@H]2C1 (relative stereo) [PCR II-23, 4,4,7,7, 10beta-Pentamethvl-trans-decal-3beta-ol]
LDL BINDING [2, 10]: 117 ± 11 ng/mg cell protein | LDL BINDING [2, 11]: 36 ± 2 ng/mg cell protein | LDL BINDING [2, 12]: 196 ± 30 ng/mg cell protein | LDL BINDING [2, 13]: 281 ± 18 ng/mg cell protein

inhibition of SOC in rat hepatocytes (squalene oxide cyclase [8]): unexpectedly poor inhibitor of SOC | IC50 (squalene oxide cyclase [3]): 430 µM
Structure (SMILES): CC1(C)[C@@H](O)CC[C@]2(C)CCCC[C@@H]12 (relative stereo) [TMD, 4, 4,10 beta-trimethyl-trans-decal-3beta-ol]
major product of metabolism [4]: 4,4,10beta-trimethyl-trans-decalin-3beta, 7beta-diol was isolated as the major product of TMD metabolism | inhibition of cholesterol biosynthesis [5]: specifically inhibited cholesterol biosynthesis | inhibition of cholesterol biosynthesis [6]: specifically inhibited cholesterol biosynthesis | type of inhibition of SOC (SOC): nonoompetitive inhibitors of SOC | inhibition of SOC in vivo (squalene oxide cyclase [7]): unexpectedly poor inhibitor of SOC | effect on the cyclases of higher plants [1]: virtually no effect | 125I-LDL Binding ([2]; 20 ug/ml): 130 ± 11 ng/mg cell protein | 125I-LDL Internal ([2]; 20 ug/ml): 891 ± 202 ng/mg cell protein | 125I-LDL Degradation ([2]; 20 ug/ml): 990 ± 71 ng/mg cell protein | inhibition of squalene oxide cyclase in in vitro microsomal assays (squalene oxide cyclase [3]): effective inhibitor of squalene oxide cyclase

Structure (SMILES): CC1(C)[C@@H](O)CC[C@]2(C)[C@@H](CO)CCC[C@@H]12 (relative stereo) [JW I-60, 4,4,10beta-trimethyl-9beta-hydroxymethyl-trans-decal-3beta-ol]
inhibition of fatty acid synthesis (fatty acid synthesis): much more effective inhibitor of fatty acid synthesis | inhibition of cholesterol synthesis (cholesterol synthesis): weak inhibitor of cholesterol synthesis

Structure (SMILES): C[C@H](CCCC(C)(C)O)[C@H]1CC[C@H]2[C@@H]3CC=C4C[C@@H](O)CC[C@]4(C)[C@H]3CC[C@]12C [25-hydroxy-cholesterol]
LDL BINDING ([2]; suppressor alone in HDF, 5 ug/ml, no suppressor 88 ± 6): 34 ± 3 ng/mg cell protein

IC50 (squalene oxide cyclase [3]): 430 µM
Structure (SMILES): CC1(C)[C@@H](O)CC[C@]2(C)CCC(F)(F)C[C@@H]12 (relative stereo) [LN I-83, 4,4,10 beta-Trimethyl-7,7-difluoro-trans-decal-3beta-ol]
125I-LDL Binding ([2]; 20 ug/ml): 105 ± 12 ng/mg cell protein | 125I-LDL Internal ([2]; 20 ug/ml): 687 ± 152 ng/mg cell protein | 125I-LDL Degradation ([2]; 20 ug/ml): 864 ± 47 ng/mg cell protein

sterol biosynthesis by primary rat hepatocytes ([9]; 50 ug/ml): no detectable sterol biosynthesis | IC50 (squalene oxide cyclase [3]): 80 µM | effectiveness as SOC inhibitor relative to TMD (squalene oxide cyclase [3]): ~5.4 times
Structure (SMILES): CC1(C)[C@@H](O)CC[C@]2(C)CCC3(CC3)C[C@@H]12 (relative stereo) [PCR II-8B, (4,4,10beta-trimethyl-trans-decal-3 beta-ol)--7-spiro-1'-cyclopropane]
LDL BINDING [2, 10]: 69 ± 4 ng/mg cell protein | LDL BINDING [2, 11]: 39 ± 4 ng/mg cell protein | LDL BINDING [2, 12]: 176 ± 17 ng/mg cell protein | LDL BINDING [2, 13]: 278 ± 3 ng/mg cell protein

Structure (SMILES): CC1(C)NCC[C@]2(C)CCCC[C@@H]12 (relative stereo) [LA-I-140, 4,4,10-trimethyl-trans-3-azadecalin]
IC50 ([9]; Hepatocyte, primary rat hepatocytes, overnight incubation, read-out: concentration reducing sterol synthesis to one-half of normal levels): 40 µg/mL (≈ 221 µM) | 125I-LDL Binding ([2]; 20 ug/ml): 75 ± 3 ng/mg cell protein | 125I-LDL Internal ([2]; 20 ug/ml): 642 ± 96 ng/mg cell protein | 125I-LDL Degradation ([2]; 20 ug/ml): 408 ± 61 ng/mg cell protein

Structure (SMILES): CCN(CC)CCO[C@H]1CC[C@@]2(C)C(=CC[C@@H]3[C@@H]2CC[C@]2(C)C(=O)CC[C@@H]32)C1 [U18666A]
125I-LDL Binding ([2]; 5 ug/ml): 160 ± 4 ng/mg cell protein | 125I-LDL Internal ([2]; 5 ug/ml): 1093 ± 17 ng/mg cell protein | 125I-LDL Degradation ([2]; 5 ug/ml): 682 ± 141 ng/mg cell protein

Structure (SMILES): CC(O)(CCO)CC(=O)O (stereo not drawn) [Mevalonate]
LDL BINDING ([2]; suppressor alone in HDF, no suppressor 88 ± 6): 19 ± 2 ng/mg cell protein
